Test results: paper PMC11116414, “Impact of secretin receptor homo-dimerization on natural ligand binding” (Nature Communications, 2024)
No end group written: not given here.

Test system: cysteine-containing SecR(G264A,I268A) constructs
Assay: Cysteine trapping with SecR(G264A,I268A) cysteine constructs, intact COS-1 cells
Format: binding, human
Settings: mean ± S.E.M.
Procedure: In short, 15 µg of each peptide were incubated with 1 mCi of Na^125I for 15 s in borate buffer (pH 9.0) using solid-state N-chlorobenzene sulfonamide (iodination beads), and radioactive peptide products were separated and purified using reversed-phase HPLC, to yield a mono-iodinated peak with a specific radioactivity of 2000 Ci/mmol.
Modified secretin receptor constructs were prepared by mutagenesis of human SecR(G264A,I268A) by introducing cysteine residues to replace each natural residue in the N-terminal stalk region, (extracellular loop 1) ECL1, ECL2, and ECL3 regions of the receptor[21]. Mutagenesis was performed using the QuikChange site-directed mutagenesis kit from Stratagene (La Jolla, CA), with the products verified by direct DNA sequencing.
Cysteine trapping is a technique in which cysteine residues incorporated into distinct positions within a peptide ligand and within its receptor are allowed to form disulfide bonds when two free cysteines are in proximity to each other with necessary distance and geometry. As noted above, this was performed with secretin peptides incorporating cysteines in positions 2, 5, 6 and 7[20],[21], and with a series of SecR mutants incorporating cysteines in all extracellular domains (75 distinct constructs in a TM4 mutant non-dimerizing SecR background). COS-1 cells were grown to approximate 85% confluence in 24-well tissue culture plates, and transfected with cysteine mutant receptor constructs using the PEI method. Assays were started by washing the cells with DMEM containing 5% Fetal Clone II before being incubated with 200 μl radiolabeled cysteine-containing probes (approximately 100,000 cpm per well) for 1.5 h at room temperature. The assays were terminated by washing the cells with ice-cold PBS, pH 7.4, and mixing with 60 µl SDS Laemmli sample buffer not containing dithiothreitol (DTT). Lysates were run on 10% SDS-polyacrylamide gels. Gels were then dried, and bands of interest were visualized by autoradiography, and specific bands were identified, and intensities quantified using ImageJ. Sites having labeling above background were determined using one-way ANOVA with Dunnett’s post-test, with P < 0.001 considered to be significant. The apparent molecular weights of the receptor bands were determined by interpolation with the mobility of the appropriate ProSieve protein markers.

In the case of “Cys^2-[Tyr^10]secretin(1-27) (HCDGTFTSEYSRLREGARLQRLLQGLV; not fully specified; ends and bridges not checked; also: radioiodinated; UniProt P09683 28-54, looked up, variant S2C L10Y) [Cys^2-Sec, cysteine-containing secretin agonist probe, radioiodinated for cysteine trapping]”, the Intraloop labeling (A290C, ECL2, n = 3-5) was < 1 percentage, the Overall labeling (A290C, ECL2, n = 3-5) was < 1 percentage and the Intraloop labeling (A292C, ECL2, n = 3-5) was < 1 percentage. For the same substance, the Overall labeling (A292C, ECL2, n = 3-5, Cys5 significant (P < 0.0001)) was < 1 percentage, the Intraloop labeling (A365C, ECL3, n = 3-5) was 22.5±19.5 percentage and the Overall labeling (A365C, ECL3, n = 3-5, Cys5 significant (P < 0.0001)) was 21.7±19.6 percentage. For the same substance, the Intraloop labeling (D282C, ECL2, n = 3-5) was < 1 percentage, the Overall labeling (D282C, ECL2, n = 3-5) was < 1 percentage and the Intraloop labeling (D287C, ECL2, n = 3-5) was < 1 percentage. For the same substance, the Overall labeling (D287C, ECL2, n = 3-5) was < 1 percentage, the Intraloop labeling (D364C, ECL3, n = 3-5) was 22.1±19.0 percentage and the Overall labeling (D364C, ECL3, n = 3-5, Cys5 significant (P < 0.0001)) was 21.3±19.1 percentage. The Intraloop labeling (E281C, ECL2, n = 3-5) was < 1 percentage, the Overall labeling (E281C, ECL2, n = 3-5) was < 1 percentage and the Overall labeling (E363C, ECL3, n = 3-5) was < 1 percentage. For the same substance, the Intraloop labeling (E367C, ECL3, n = 3-5) was < 1 percentage, the Overall labeling (E367C, ECL3, n = 3-5) was < 1 percentage and the Intraloop labeling (E373C, ECL3, n = 3-5) was 37.0±22.4 percentage. The Overall labeling (E373C, ECL3, n = 3-5) was 27.2±18.7 percentage, the Intraloop labeling (F279C, ECL2, % of highest labeling within loop, n = 4 (Cys2), 5 (Cys5, Cys6), 3 (Cys7)) was < 1 percentage and the Overall labeling (F279C, ECL2, % of highest-labeled residue across all constructs, n = 4 (Cys2), 5 (Cys5, Cys6), 3 (Cys7)) was < 1 percentage. The Intraloop labeling (F358C, ECL3, n = 3-5) was 36.3±17.6 percentage, the Overall labeling (F358C, ECL3, n = 3-5) was 29.0±11.6 percentage and the Intraloop labeling (F360C, ECL3, n = 3-5) was 22.9±8.3 percentage. For the same substance, the Overall labeling (F360C, ECL3, n = 3-5) was 19.4±6.5 percentage, the Intraloop labeling (F371C, ECL3, n = 3-5) was 14.7±12.5 percentage and the Overall labeling (F371C, ECL3, n = 3-5) was 14.5±12.5 percentage. For the same substance, the Intraloop labeling (F372C, ECL3, n = 3-5) was 33.7±20.5 percentage, the Overall labeling (F372C, ECL3, n = 3-5) was 23.5±15.3 percentage and the Intraloop labeling (G284C, ECL2, n = 3-5) was < 1 percentage. The Overall labeling (G284C, ECL2, n = 3-5) was < 1 percentage, the Intraloop labeling (I288C, ECL2, n = 3-5) was < 1 percentage and the Overall labeling (I288C, ECL2, n = 3-5, Cys5 and Cys7 significant (P < 0.0001)) was < 1 percentage. For the same substance, the Intraloop labeling (I294C, ECL2, n = 3-5) was < 1 percentage, the Overall labeling (I294C, ECL2, n = 3-5) was < 1 percentage and the Intraloop labeling (I368C, ECL3, n = 3-5) was < 1 percentage. The Overall labeling (I368C, ECL3, n = 3-5) was < 1 percentage, the Intraloop labeling (L280C, ECL2, n = 3-5) was < 1 percentage and the Overall labeling (L280C, ECL2, n = 3-5) was < 1 percentage. The Intraloop labeling (L370C, ECL3, n = 3-5) was 16.6±15.3 percentage, the Intraloop labeling (L374C, ECL3, n = 3-5) was 40.3±24.4 percentage and the Overall labeling (L374C, ECL3, n = 3-5, Cys5, Cys6, Cys7 significant (P < 0.001)) was 29.1±19.6 percentage. For the same substance, the Intraloop labeling (N289C, ECL2, n = 3-5) was < 1 percentage, the Overall labeling (N289C, ECL2, n = 3-5) was < 1 percentage and the Intraloop labeling (N291C, ECL2, n = 3-5) was < 1 percentage. For the same substance, the Overall labeling (N291C, ECL2, n = 3-5) was < 1 percentage, the Intraloop labeling (Q369C, ECL3, n = 3-5) was < 1 percentage and the Overall labeling (Q369C, ECL3, n = 3-5) was < 1 percentage. For the same substance, the Intraloop labeling (S293C, ECL2, n = 3-5) was < 1 percentage, the Overall labeling (S293C, ECL2, n = 3-5) was < 1 percentage and the Intraloop labeling (S361C, ECL3, n = 3-5) was < 1 percentage. For the same substance, the Overall labeling (S361C, ECL3, n = 3-5) was < 1 percentage, the Intraloop labeling (V283C, ECL2, n = 3-5) was < 1 percentage and the Overall labeling (V283C, ECL2, n = 3-5) was < 1 percentage. The Intraloop labeling (W286C, ECL2, n = 3-5) was < 1 percentage, the Overall labeling (W286C, ECL2, n = 3-5) was < 1 percentage and the Intraloop labeling (W295C, ECL2, n = 3-5) was 100±0 percentage. The Overall labeling (W295C, ECL2, n = 3-5, Cys2, Cys5, Cys7 significant (P < 0.0001)) was 93.0±7.0 percentage, the Intraloop labeling (W296C, ECL2, n = 3-5) was < 1 percentage and the Overall labeling (W296C, ECL2, n = 3-5, Cys6 significant (P = 0.0003)) was < 1 percentage.
